# Experiments:
# [1] = test system: HeLa; experiment: Cytotoxicity against Homo sapiens (human) HeLa cells assessed as metabolic active cells after 24 hr by MTT assay; format: functional, cell-based
# [2] = n-octanol-water partition coefficient, log P of the compound by shake-flask method; format: physicochemical
# [3] = test system: HeLa; experiment: Cytotoxicity against Homo sapiens (human) HeLa cells assessed as cell viability after 24 hr by crystal violet staining; format: functional, cell-based
SMILES,IC50 [1] [mM],logP [2],IC50 [3] [mM]
O=C(O)[C@H](c1ccccc1)N1Cc2ccccc2C1,9.48,-0.31,7.07
CC(C)C[C@@H](C(=O)O)N1Cc2ccccc2C1,4.56,0.114,4.3
COC(=O)CN1Cc2ccccc2C1,8.23,-0.027,3.65
COC(=O)[C@H](Cc1c[nH]c2ccccc12)N1Cc2ccccc2C1,9.71,1.45,8.44
COC(=O)[C@H](c1ccccc1)N1Cc2ccccc2C1,8.25,1.35,5.32
O=C(O)CN1Cc2ccccc2C1,8.74,-0.229,5.62
COC(=O)[C@H](CC(C)C)N1Cc2ccccc2C1,2.56,0.065,3.16
O=C(O)[C@H](Cc1c[nH]c2ccccc12)N1Cc2ccccc2C1,7.6,0.347,8.82

# Reference: ChEMBL document CHEMBL3046141, “Partition coefficient determination of a series of isoindolines-2-substituted and its correlation with their antiproliferative activity on HeLa cells” (Med Chem Res, 2013)
